{
  "source": "paper doi:10.1101/2023.12.04.569845",
  "about": "“Identification of 4-(6-((2-methoxyphenyl)amino)pyrazin-2-yl)benzoic acids as CSNK2A inhibitors with antiviral activity and improved selectivity over PIM3” (bioRxiv, 2023)",
  "assay_in_all_cases": "biochemical",
  "design_in_all_cases": "Thermal shift (DSF, SYPRO Orange) Tm shift of recombinant kinase domains at 10 uM compound",
  "key": {"FGFR2": {"biological_target": "FGFR2 (Homo sapiens, UniProt P21802)", "sequence (P21802 whole entry)": "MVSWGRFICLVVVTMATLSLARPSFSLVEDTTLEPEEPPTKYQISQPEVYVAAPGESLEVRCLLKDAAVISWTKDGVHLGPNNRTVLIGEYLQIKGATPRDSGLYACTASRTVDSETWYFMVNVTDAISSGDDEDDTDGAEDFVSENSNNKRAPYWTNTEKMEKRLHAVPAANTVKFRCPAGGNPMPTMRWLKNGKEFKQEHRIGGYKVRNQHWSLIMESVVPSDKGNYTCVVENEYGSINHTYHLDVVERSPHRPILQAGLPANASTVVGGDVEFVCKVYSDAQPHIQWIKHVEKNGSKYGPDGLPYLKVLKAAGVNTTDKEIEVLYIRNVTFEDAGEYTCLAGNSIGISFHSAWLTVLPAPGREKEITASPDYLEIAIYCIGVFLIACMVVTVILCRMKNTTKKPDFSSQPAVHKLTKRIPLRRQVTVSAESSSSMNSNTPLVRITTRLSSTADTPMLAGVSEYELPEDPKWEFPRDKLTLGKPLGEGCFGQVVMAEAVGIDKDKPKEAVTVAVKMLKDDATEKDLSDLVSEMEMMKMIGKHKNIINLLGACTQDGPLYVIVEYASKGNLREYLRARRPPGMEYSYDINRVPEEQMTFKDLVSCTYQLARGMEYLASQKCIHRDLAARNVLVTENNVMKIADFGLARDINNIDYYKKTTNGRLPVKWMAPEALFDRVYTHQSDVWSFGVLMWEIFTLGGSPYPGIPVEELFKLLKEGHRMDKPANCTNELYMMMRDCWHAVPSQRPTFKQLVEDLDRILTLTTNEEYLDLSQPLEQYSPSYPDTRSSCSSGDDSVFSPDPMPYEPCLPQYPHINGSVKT"}, "ULK3": {"biological_target": "T1, ULK3 (Homo sapiens, UniProt Q6PHR2)", "T1 sequence (Q6PHR2 1-472)": "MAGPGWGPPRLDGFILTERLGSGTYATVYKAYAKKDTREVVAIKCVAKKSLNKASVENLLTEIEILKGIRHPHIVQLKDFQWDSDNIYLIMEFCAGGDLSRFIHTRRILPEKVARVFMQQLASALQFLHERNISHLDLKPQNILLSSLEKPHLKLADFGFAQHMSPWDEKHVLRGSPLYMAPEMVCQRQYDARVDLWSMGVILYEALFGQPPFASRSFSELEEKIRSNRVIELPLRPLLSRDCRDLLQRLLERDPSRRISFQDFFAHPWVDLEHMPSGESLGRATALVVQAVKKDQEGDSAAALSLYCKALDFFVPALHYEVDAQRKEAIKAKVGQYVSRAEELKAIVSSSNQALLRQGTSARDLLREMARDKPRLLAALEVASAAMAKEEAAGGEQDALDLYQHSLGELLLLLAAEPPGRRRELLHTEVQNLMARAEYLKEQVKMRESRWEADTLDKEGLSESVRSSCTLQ"}, "EPHB3": {"biological_target": "T2, EPHB3 (Homo sapiens, UniProt P54753)", "T2 sequence (P54753 1-998)": "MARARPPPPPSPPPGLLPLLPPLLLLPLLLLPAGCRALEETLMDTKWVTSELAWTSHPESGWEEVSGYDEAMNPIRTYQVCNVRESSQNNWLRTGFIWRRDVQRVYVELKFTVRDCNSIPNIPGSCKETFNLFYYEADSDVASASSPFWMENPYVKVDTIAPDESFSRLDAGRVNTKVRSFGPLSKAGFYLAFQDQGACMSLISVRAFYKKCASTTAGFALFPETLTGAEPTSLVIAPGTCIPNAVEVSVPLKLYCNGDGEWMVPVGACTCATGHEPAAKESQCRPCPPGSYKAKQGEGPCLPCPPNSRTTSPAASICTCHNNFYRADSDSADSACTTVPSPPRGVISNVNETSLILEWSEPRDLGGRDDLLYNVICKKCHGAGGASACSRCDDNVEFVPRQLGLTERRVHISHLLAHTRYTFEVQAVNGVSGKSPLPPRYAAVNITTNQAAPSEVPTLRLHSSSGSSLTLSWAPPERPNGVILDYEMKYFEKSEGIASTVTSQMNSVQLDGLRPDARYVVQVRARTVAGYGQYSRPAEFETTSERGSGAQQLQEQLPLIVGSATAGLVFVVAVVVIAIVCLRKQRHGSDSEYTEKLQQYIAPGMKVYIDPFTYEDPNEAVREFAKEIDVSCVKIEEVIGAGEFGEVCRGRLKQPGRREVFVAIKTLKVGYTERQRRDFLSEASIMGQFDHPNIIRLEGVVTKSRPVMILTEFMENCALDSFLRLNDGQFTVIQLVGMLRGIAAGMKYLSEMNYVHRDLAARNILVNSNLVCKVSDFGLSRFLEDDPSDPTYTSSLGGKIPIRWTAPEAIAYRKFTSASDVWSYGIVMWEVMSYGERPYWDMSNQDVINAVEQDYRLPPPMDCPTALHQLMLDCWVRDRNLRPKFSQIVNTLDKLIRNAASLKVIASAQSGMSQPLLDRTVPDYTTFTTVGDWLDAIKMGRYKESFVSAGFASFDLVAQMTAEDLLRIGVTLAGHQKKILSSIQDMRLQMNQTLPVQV"}, "ULK1": {"biological_target": "T3, ULK1 (Homo sapiens, UniProt O75385)", "T3 sequence (O75385 1-1050)": "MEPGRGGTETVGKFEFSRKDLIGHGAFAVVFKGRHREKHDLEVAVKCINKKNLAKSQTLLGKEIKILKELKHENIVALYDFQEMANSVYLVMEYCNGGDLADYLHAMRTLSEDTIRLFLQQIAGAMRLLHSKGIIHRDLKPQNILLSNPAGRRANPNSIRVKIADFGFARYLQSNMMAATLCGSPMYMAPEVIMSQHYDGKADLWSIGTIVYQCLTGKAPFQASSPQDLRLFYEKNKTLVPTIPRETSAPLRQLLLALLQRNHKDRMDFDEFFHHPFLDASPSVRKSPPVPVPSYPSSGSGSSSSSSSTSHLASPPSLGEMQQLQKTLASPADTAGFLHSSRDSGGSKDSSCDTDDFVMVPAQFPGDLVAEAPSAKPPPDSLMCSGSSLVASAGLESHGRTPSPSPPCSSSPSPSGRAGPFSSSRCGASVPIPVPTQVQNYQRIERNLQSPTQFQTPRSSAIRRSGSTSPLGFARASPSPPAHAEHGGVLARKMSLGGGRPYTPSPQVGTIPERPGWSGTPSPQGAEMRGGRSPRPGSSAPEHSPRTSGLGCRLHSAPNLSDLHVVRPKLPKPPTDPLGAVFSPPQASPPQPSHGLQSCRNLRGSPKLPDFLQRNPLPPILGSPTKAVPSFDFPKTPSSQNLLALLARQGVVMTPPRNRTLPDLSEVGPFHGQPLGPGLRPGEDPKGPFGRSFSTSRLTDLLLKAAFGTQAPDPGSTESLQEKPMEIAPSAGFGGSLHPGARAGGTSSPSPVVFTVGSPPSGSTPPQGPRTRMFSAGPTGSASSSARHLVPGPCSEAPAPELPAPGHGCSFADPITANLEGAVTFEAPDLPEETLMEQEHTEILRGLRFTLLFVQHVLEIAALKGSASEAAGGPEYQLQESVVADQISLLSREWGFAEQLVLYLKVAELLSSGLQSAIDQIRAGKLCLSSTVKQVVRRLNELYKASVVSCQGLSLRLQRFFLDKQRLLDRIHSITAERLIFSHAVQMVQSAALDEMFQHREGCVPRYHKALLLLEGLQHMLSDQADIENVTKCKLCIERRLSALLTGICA"}, "BIKE": {"biological_target": "T4, BIKE (Homo sapiens, UniProt Q9NSY1)", "T4 construct": "gene BMP2K", "T4 sequence (Q9NSY1 whole entry)": "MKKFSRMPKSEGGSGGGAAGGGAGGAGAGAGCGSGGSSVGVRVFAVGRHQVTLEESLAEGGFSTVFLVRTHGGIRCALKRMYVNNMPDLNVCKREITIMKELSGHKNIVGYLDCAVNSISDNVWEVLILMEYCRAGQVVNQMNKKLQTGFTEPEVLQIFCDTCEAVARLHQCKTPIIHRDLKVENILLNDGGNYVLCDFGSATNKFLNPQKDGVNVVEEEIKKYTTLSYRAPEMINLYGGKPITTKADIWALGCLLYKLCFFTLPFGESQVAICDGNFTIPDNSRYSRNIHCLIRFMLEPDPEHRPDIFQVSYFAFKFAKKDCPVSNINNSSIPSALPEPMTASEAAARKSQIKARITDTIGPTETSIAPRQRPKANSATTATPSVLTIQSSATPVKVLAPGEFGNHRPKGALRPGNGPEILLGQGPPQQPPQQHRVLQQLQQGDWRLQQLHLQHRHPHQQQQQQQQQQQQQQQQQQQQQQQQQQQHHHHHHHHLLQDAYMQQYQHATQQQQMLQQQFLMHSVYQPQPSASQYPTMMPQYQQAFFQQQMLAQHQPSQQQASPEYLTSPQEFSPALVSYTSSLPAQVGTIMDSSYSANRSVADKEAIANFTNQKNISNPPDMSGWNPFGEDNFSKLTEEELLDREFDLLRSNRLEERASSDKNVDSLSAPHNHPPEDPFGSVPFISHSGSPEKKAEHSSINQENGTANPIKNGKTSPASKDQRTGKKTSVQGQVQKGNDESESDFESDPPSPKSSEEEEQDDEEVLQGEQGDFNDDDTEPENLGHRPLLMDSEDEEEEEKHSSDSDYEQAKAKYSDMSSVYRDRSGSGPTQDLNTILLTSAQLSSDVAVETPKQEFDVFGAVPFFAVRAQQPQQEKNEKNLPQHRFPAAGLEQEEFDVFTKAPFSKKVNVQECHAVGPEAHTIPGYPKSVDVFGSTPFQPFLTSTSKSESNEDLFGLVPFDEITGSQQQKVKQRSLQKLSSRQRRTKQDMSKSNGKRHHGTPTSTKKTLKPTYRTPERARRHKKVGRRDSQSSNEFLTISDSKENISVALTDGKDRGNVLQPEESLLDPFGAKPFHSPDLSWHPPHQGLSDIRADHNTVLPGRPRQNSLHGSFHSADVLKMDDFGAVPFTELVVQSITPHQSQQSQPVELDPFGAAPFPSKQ"}},
  "note": "Where two headings read alike, the source gives them in different places.",
  "data": [
    {"compound": "COc1ccc(OC(C)C)cc1Nc1cncc(-c2ccc(C(=O)O)cc2)n1", "note": "[7c]", "values": [
      {"measurement": "ΔTm at 10 µM", "setting": "FGFR2; read-out: 7c", "value": 0, "unit": "°C"},
      {"measurement": "ΔTm at 10 µM", "setting": "ULK3; read-out: 7c", "value": 3, "unit": "°C"},
      {"measurement": "ΔTm at 10 µM", "setting": "EPHB3; read-out: 7c", "value": -1, "unit": "°C"},
      {"measurement": "ΔTm at 10 µM", "setting": "ULK1; read-out: 7c", "value": 1, "unit": "°C"},
      {"measurement": "ΔTm at 10 µM", "setting": "BIKE; read-out: 7c", "value": 10, "unit": "°C"}
    ]},
    {"compound": "CC(C)Nc1ccc2cnn(-c3cncc(-c4ccc(C(=O)O)cc4)n3)c2c1", "note": "[compound 2, 2]", "values": [
      {"measurement": "ΔTm at 10 µM", "setting": "FGFR2; read-out: 2", "value": 0, "unit": "°C"},
      {"measurement": "ΔTm at 10 µM", "setting": "ULK3; read-out: 2", "value": 7, "unit": "°C"},
      {"measurement": "ΔTm at 10 µM", "setting": "EPHB3; read-out: 2", "value": 0, "unit": "°C"},
      {"measurement": "ΔTm at 10 µM", "setting": "ULK1; read-out: 2", "value": 3, "unit": "°C"},
      {"measurement": "ΔTm at 10 µM", "setting": "BIKE; read-out: 2", "value": 13, "unit": "°C"}
    ]},
    {"compound": "CC(C)Oc1ccc2ccn(-c3cncc(-c4ccc(C(=O)O)cc4)n3)c2c1", "note": "[6c]", "values": [
      {"measurement": "ΔTm at 10 µM", "setting": "FGFR2; read-out: 6c", "value": 0, "unit": "°C"},
      {"measurement": "ΔTm at 10 µM", "setting": "ULK3; read-out: 6c", "value": 5, "unit": "°C"},
      {"measurement": "ΔTm at 10 µM", "setting": "EPHB3; read-out: 6c", "value": 1, "unit": "°C"},
      {"measurement": "ΔTm at 10 µM", "setting": "ULK1; read-out: 6c", "value": 2, "unit": "°C"},
      {"measurement": "ΔTm at 10 µM", "setting": "BIKE; read-out: 6c", "value": 11, "unit": "°C"}
    ]}
  ]
}
